Measurements taken from US6740663B2, “Mono- and di-fluorinated benzothiepine compounds as inhibitors of apical sodium co-dependent bile acid transport (ASBT) and taurocholate uptake” (G.D. Searle, LLC, priority 2001, dated 2004).

Row | SMILES | melting point [°C]
1 | CCCC[C@]1(CC)CS(=O)(=O)c2ccc(N3CCCC3)cc2[C@@H](c2ccc(F)cc2)[C@H]1O [Compound 82, (3α,4β,5β)3-Butyl-3-ethyl-5-(4′-fluoropheny)-4-hydroxy-7-(1-pyrrolidinyl)-2,3,4,5-tetrahydrobenzothiepine-1,1-dioxide] | 174.5 to 177
2 | CCCCC1(CCCC)CS(=O)(=O)c2ccc(N(C)C)cc2[C@@H](c2ccc(OCCCCS(N)(=O)=O)cc2)[C@H]1O [Example 1405] | 108 to 110
3 | CCCCC1(CCCC)CS(=O)(=O)c2ccc(N(C)C)cc2[C@@H](c2ccc(OCCCCC[N+](C)(C)CC[N+](C)(C)CC)cc2)[C@H]1O [Example 1418, (4R-cis)-N-[5-[4-[3,3-Dibutyl-7-(dimethylamino)-2,3,4,5-tetrahydro-4-hydroxy-1,1-dioxido-1-benzothiepin-5-yl]phenoxy]pentyl]-N′-ethyl-N,N,N′,N′-tetramethyl-1,2-ethanediaminium Dichloride] | 193 to 197
4 | CCCCC1(CCCC)CS(=O)(=O)c2ccc(N(C)C)cc2[C@@H](c2ccc(OCc3ccc(C(=O)O)cc3)cc2)[C@H]1O [Example 1424, (4R-cis)-4-[[4-[3,3-Dibutyl-7-(dimethylamino)-2,3,4,5-tetrahydro-4-hydroxy-1,1-dioxido-1-benzothiepin-5-yl]phenoxy]methyl]benzoic Acid] | 156 to 159
5 | CCCCC1(CCCC)CS(=O)(=O)c2ccc(N(C)C)cc2[C@@H](c2ccc(OCCCCCC(C(=O)O)C(=O)O)cc2)[C@H]1O [Example 1413, (4S-cis)-[5-[4-[3,3-Dibutyl-7-(dimethylamino)-2,3,4,5-tetrahydro-4-hydroxy-1,1-dioxido-1-benzothiepin-5-yl]phenoxy]pentyl]propanedioic Acid] | 118
6 | CCCCC1(CCCC)CS(=O)(=O)c2ccc(N(C)C)cc2[C@@H](c2ccc(OCc3cccc(CCC(=O)O)n3)cc2)[C@H]1O [Example 1430, (4R-cis)-6-[[4-[3,3-Dibutyl-7-(dimethylamino)-2,3,4,5-tetrahydro-4-hydroxy-1,1-dioxido-1-benzothiepin-5-yl]phenoxy]methyl]-2-pyridinepropanoic Acid] | 105 to 107
7 | CCCCC1(CCCC)CS(=O)(=O)c2ccc(N(C)C)cc2[C@@H](c2cccc(NC(=O)OCCC[N+]34CCN(CC3)CC4)c2)[C@H]1O.[Cl-] | 218 to 225
8 | CCCCC1(CCCC)CS(=O)(=O)c2ccc(N(C)C)cc2[C@@H](c2ccc(OCCOCCC(C(=O)O)C(=O)O)cc2)[C@H]1O [Example 1432, (4S-cis)-[2-[2-[4-[3,3-Dibutyl-7-(dimethylamino)-2,3,4,5-tetrahydro-4-hydroxy-1,1-dioxido-1-benzothiepin-5-yl]phenoxy]ethoxy]ethyl]propanedioic Acid] | 119.5
9 | CCCCC1(CCCC)CS(=O)(=O)c2ccc(N(C)C)cc2[C@@H](c2ccc(OCCCCCNC(=N)N)cc2)[C@H]1O [Example 1422, (4R-cis)-[5-[4-[3,3-Dibutyl-7-(dimethylamino)-2,3,4,5-tetrahydro-4-hydroxy-1,1-dioxido-1-benzothiepin-5-yl]phenoxy]pentyl]guanidine] | 67 to 72.5
10 | CCCCC1(CCCC)CS(=O)(=O)c2ccc(N(C)C)cc2[C@@H](c2ccc(OCCCCCc3nn[nH]n3)cc2)[C@H]1O [Example 1420, (4R-cis)-3,3-Dibutyl-7-(dimethylamino)-2,3,4,5-tetrahydro-5-[4-[[5-(1H-tetrazol-5-yl)pentyl]oxy]phenyl]-1-benzothiepin-4-ol 1,1-Dioxide] | 80 to 85
11 | CCCCC1(CCCC)CS(=O)(=O)c2ccc(N(C)C)cc2[C@@H](c2ccc(OCCCCCOc3cc(C(=O)O)nc(C(=O)O)c3)cc2)[C@H]1O [Example 1421, (4R-cis)-4-[[5-[4-[3,3-Dibutyl-7-(dimethylamino)-2,3,4,5-tetrahydro-4-hydroxy-1,1-dioxido-1-1benzothiepin-5-yl]phenoxy]pentyl]oxy]-2,6-pyridinecarboxylic Acid] | 143
12 | CCCCC1(CCCC)CS(=O)(=O)c2ccc(N(C)C)cc2[C@@H](c2cccc(NC(=O)Nc3cccc(C[N+]45CCN(CC4)CC5)c3)c2)[C@H]1O.[Cl-] | 246 to 248
13 | CCCC[C@]1(CC)CS(=O)(=O)c2ccc(N3CCOCC3)cc2[C@@H](c2ccc(F)cc2)[C@H]1O [Compound 83, (3α,4β,5β)3-Butyl-3-ethyl-5-(4′-fluorophenyl)-4-hydroxy-7-(1-morpholinyl)-2,3,4,5-tetrahydrobenzothiepine-1,1-dioxide] | 176.5 to 187.5
